Measurements as given in patent US20220331274A1, “METHODS OF TREATING CANCER” (Inspirna, Inc., priority 2019, published 2022).

Key:
2A6 = 2A6 (Homo sapiens, UniProt P11509); assay: in vitro CYP450 inhibition; assay type: in vitro ADME
[1] = target: human ether-n-go-go-related gene (hERG) channel (Homo sapiens, UniProt Q12809); assay: in vitro hERG assay; assay type: cell-based
[2] = neurobehavioral functional observation battery (FOB) and respiratory evaluations in rats; assay type: in vivo
[3] = oral PK study in CD-1 mice; assay type: in vivo
ApoE = ApoE gene expression induction in cancer cells; assay type: cell-based; settings: compared to control cells
TNBC metastasis = assay: mouse model of TNBC metastasis; settings: in vivo
[4] = pre-clinical toxicity studies; assay type: in vivo
OAT3 = OAT3 (Homo sapiens, UniProt Q8TCC7); assay: transporter inhibition in vitro; assay type: in vitro ADME
mouse melanoma = assay: syngeneic mouse melanoma model; assay type: in vivo
[5] = oral PK study in Cynomolgus monkeys; assay type: in vivo; settings: cynomolgus monkey, plasma
melanoma xenograft = melanoma xenograft study in non-obese diabetic-severe combined immunodeficiency mice; assay type: in vivo; settings: 25 mg/kg
LXRβ = LXRβ (Homo sapiens, UniProt P55055); assay: cell-based biosensor assay
LXRβ, sequence (P55055 whole entry): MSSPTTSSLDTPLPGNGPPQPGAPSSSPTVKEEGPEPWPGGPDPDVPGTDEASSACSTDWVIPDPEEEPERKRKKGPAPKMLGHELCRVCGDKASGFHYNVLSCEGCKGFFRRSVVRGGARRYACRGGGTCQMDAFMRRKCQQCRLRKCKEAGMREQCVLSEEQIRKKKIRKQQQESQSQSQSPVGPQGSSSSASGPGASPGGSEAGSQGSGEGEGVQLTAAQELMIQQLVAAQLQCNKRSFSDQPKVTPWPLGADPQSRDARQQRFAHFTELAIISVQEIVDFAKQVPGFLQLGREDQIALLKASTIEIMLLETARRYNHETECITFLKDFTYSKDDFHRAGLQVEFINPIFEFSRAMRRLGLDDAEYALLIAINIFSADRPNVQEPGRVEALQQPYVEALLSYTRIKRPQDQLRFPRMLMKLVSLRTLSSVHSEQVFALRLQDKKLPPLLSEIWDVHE

tumor growth = tumor growth studies, minimum efficacious dose and exposure; assay type: in vivo
[6] = system: melanoma, glioblastoma, TNBC, ovarian cancer, and lung cancer; assay: syngeneic and human xenograft mouse tumor models, primary tumor growth; assay type: in vivo
2C19 = 2C19 (Homo sapiens, UniProt P33261); assay: in vitro CYP450 inhibition; assay type: in vitro ADME
2C19, sequence (P33261 whole entry): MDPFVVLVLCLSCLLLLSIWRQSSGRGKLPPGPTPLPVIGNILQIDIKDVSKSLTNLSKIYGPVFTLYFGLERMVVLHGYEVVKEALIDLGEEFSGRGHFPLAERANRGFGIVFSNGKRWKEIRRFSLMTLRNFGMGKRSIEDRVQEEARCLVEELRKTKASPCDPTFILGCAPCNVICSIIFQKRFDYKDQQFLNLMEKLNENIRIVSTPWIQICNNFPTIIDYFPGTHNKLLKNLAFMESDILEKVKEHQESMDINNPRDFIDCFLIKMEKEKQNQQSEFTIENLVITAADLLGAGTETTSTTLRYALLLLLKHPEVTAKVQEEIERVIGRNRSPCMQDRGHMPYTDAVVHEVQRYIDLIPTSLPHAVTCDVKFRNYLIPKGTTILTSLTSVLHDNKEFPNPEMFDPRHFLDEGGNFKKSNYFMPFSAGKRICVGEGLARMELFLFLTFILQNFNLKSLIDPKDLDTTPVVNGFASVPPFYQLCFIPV

2C9 = 2C9 (Homo sapiens, UniProt P11712); assay: in vitro CYP450 inhibition; assay type: in vitro ADME
[7] = Example 1: adverse event profile of full and reduced regimens with docetaxel; assay type: in vivo
Protocol: Protocol: Three subjects was administered Regimen 1 (Full): 35 mg/m^2 of docetaxel on days 1, 8, and 15 of every 28-day cycle and 80 mg of 2-[3-[(3R)-3-[[2-chloro-3-(trifluoromethyl)phenyl]methyl-(2,2-diphenylethyl)amino]butoxy]phenyl]acetic acid twice per day daily throughout treatment. Seven subjects was administered Regimen 2 (Reduced): 28 mg/m^2 of docetaxel on days 1, 8, and 15 of every 28-day cycle and 80 mg of 2-[3-[(3R)-3-[[2-chloro-3-(trifluoromethyl)phenyl]methyl-(2,2-diphenylethyl)amino]butoxy]phenyl]acetic acid twice per day for five continuous days followed by a 2 day rest period throughout treatment. One subject that was administered Regimen 2 received 35 mg/m^2 of docetaxel on days 1 and 80 mg of 2-[3-[(3R)-3-[[2-chloro-3-(trifluoromethyl)phenyl]methyl-(2,2-diphenylethyl)amino]butoxy]phenyl]acetic acid twice per day for the first seven days of treatment prior to switching to the reduced treatment schedule for the remainder of the 28-day cycle.

2B6 = 2B6 (Homo sapiens, UniProt P20813); assay: in vitro CYP450 inhibition; assay type: in vitro ADME
1A1 = 1A1 (Homo sapiens, UniProt P04798); assay: in vitro CYP450 inhibition; assay type: in vitro ADME
3A4 = 3A4 (Homo sapiens, UniProt P08684); assay: in vitro CYP450 inhibition; assay type: in vitro ADME
cancer cells = assay: cancer cell invasion in vitro; assay type: cell-based
OATP1B3 = OATP1B3 (Homo sapiens, UniProt Q9NPD5); assay: uptake transporter inhibition in vitro; assay type: in vitro ADME
OATP1B3, sequence (Q9NPD5 whole entry): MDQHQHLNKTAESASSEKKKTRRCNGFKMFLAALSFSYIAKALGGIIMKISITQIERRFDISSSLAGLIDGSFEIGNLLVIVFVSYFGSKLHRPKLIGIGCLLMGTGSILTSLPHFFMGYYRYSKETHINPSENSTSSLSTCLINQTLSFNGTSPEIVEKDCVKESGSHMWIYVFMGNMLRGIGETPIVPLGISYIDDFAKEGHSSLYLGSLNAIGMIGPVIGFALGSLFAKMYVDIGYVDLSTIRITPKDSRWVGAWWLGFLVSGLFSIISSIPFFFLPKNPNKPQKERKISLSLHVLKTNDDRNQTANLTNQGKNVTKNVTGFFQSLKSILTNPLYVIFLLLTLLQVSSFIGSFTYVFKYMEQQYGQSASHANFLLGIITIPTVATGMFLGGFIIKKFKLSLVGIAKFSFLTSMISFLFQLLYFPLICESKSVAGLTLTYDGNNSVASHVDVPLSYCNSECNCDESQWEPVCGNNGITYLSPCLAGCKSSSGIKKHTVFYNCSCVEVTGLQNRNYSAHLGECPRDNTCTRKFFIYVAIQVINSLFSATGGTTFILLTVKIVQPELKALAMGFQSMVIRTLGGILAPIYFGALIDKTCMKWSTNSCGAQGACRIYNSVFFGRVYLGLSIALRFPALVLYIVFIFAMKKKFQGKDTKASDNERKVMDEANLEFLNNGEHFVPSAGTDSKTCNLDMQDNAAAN

2E1 = 2E1 (Homo sapiens, UniProt P05181); assay: in vitro CYP450 inhibition; assay type: in vitro ADME
2E1, sequence (P05181 whole entry): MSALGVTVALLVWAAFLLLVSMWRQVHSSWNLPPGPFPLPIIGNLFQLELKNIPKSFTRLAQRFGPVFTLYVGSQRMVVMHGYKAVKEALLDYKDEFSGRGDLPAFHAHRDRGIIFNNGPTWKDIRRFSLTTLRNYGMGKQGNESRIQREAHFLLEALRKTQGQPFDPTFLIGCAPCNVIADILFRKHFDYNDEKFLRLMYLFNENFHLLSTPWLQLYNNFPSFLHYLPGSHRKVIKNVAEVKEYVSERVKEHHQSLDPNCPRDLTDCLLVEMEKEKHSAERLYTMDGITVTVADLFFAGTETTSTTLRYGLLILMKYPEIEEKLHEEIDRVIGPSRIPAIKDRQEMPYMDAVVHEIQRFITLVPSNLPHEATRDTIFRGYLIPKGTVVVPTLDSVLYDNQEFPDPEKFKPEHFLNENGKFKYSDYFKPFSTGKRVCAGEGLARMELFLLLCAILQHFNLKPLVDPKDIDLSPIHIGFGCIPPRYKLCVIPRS

CYP1A2 = assay: CYP induction in primary cultures of cryopreserved hepatocytes; assay type: in vitro ADME
CYP2B6 = assay: as above; assay type: in vitro ADME
OCT2 = OCT2 (Homo sapiens, UniProt O15244); assay: transporter inhibition in vitro; assay type: in vitro ADME
OCT2, sequence (O15244 whole entry): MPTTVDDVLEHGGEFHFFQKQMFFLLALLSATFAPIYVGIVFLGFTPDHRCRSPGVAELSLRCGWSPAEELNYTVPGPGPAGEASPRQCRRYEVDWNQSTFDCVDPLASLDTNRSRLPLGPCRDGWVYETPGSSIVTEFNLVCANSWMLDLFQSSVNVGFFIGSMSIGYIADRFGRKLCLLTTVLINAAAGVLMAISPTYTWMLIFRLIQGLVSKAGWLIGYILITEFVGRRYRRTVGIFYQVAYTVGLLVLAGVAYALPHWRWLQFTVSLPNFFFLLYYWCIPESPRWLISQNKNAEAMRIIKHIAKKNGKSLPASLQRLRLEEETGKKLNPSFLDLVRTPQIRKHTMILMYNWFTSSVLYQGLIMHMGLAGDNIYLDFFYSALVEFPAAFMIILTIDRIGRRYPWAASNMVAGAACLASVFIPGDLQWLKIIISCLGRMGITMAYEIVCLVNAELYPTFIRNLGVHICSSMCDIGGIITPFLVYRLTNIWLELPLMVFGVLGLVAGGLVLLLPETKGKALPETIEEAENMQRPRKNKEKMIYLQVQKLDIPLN

LXRα = LXRα (Homo sapiens, UniProt Q13133); assay: cell-based biosensor assay; settings: read-out: median effective concentration (EC50) for LXRα
CYP2J2 = CYP2J2 (Homo sapiens, UniProt P51589); assay: in vitro CYP metabolism; assay type: in vitro ADME
P-glucoprotein (P-gp) = P-glucoprotein (P-gp) (Homo sapiens, UniProt P08183); assay: efflux transporter inhibition in vitro; assay type: in vitro ADME
P-glucoprotein (P-gp), sequence (P08183 whole entry): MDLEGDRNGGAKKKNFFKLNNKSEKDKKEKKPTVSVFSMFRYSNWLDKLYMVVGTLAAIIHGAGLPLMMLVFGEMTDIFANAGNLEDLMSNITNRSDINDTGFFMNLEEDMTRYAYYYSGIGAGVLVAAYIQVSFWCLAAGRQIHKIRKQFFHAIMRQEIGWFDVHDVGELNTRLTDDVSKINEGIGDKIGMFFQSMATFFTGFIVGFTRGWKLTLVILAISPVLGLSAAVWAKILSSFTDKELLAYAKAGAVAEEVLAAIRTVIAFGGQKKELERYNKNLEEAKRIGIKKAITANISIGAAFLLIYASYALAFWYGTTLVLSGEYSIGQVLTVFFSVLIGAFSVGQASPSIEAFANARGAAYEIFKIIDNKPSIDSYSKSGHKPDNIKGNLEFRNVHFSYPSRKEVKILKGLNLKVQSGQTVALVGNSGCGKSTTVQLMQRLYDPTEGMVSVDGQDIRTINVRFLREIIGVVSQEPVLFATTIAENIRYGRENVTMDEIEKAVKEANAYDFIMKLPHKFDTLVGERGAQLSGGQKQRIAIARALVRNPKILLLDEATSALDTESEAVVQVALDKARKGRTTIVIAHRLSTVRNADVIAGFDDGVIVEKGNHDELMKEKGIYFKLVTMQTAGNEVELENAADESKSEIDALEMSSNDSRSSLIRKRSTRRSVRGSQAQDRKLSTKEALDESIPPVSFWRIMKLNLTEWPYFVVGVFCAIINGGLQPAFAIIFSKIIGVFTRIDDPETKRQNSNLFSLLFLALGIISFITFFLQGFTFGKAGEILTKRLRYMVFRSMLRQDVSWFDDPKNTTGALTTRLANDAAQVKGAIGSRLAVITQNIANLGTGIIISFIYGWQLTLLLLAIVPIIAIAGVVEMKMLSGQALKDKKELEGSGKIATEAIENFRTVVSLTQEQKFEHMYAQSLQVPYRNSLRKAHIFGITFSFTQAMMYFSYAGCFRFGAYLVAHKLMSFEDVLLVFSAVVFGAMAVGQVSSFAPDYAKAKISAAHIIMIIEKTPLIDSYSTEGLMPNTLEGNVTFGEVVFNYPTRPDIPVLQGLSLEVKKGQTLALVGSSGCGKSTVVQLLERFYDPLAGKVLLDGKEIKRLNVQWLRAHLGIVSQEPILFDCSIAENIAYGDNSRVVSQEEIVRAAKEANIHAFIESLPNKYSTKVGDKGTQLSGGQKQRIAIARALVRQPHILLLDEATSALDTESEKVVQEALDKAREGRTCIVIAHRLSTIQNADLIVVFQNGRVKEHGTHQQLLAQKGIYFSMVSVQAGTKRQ

CYP2C19 = CYP2C19 (Homo sapiens, UniProt P33261); assay: in vitro CYP metabolism; assay type: in vitro ADME
CYP2C19, sequence (P33261 whole entry): as the sequence (P33261 whole entry) above

[8] = oral PK study in male Beagle dogs; assay type: in vivo; settings: dog, plasma
[9] = po, depending on dose and formulation, read-out: mean % F
[10] = Regimen 1 (Full): 80 mg twice per day daily + docetaxel 35 mg/m^2, 3 cycles
[11] = Regimen 2 (Reduced): 80 mg twice per day 5 days then 2 day rest + docetaxel 28 mg/m^2, 20 cycles

2A6, sequence (P11509 whole entry): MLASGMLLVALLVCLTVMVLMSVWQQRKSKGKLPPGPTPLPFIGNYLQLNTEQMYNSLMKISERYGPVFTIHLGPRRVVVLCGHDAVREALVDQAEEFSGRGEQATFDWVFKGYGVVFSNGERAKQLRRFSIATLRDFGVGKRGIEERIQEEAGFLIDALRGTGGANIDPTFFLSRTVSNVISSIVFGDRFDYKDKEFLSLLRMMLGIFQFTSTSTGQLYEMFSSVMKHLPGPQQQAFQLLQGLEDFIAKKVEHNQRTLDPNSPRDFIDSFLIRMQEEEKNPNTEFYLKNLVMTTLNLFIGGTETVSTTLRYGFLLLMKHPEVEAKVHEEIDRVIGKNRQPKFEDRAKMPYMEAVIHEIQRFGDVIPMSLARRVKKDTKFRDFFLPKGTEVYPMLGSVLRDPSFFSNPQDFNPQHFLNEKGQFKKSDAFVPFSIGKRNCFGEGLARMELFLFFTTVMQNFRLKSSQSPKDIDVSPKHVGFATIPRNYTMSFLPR

## C[C@H](CCOc1cccc(CC(=O)O)c1)N(Cc1cccc(C(F)(F)F)c1Cl)CC(c1ccccc1)c1ccccc1 [2-[3-[(3R)-3-[[2-chloro-3-(trifluoromethyl)phenyl]methyl-(2,2-diphenylethyl)amino]butoxy]phenyl]acetic acid]
2A6
  inhibition of 2A6: very weakly inhibited
[1]
  hERG channel conductance: significant increase, but not inhibition
[2]
  neurobehavioral FOB or respiratory evaluations: no adverse effects were noted
[3]; CD-1, mouse, plasma, po, mice, read-out: mean apparent oral half-life (t½)
  half-life: 6.5 to 8 h
[3]; both sexes, mouse, plasma, po, CD-1 mice, males and females, read-out: time to maximum plasma concentration (Tmax)
  Tmax: 2 to 8 h
[3]; mice, fed state
  food effect: plasma concentrations higher in the fed state: > 2 fold
[3]; mouse, plasma, CD-1 mice, oral, read-out: absolute oral bioavailability (% F)
  bioavailability: > 100%
ApoE
  ApoE gene expression induction: 3 fold
TNBC metastasis
  inhibition of metastatic spread of cancer cells: ~9 fold
[4]
  liver function: Liver function abnormalities have been observed
OAT3
  inhibition at 50 µM: < 50%
Mouse melanoma; 50 mg/kg in combination with anti-PD1 therapy, tumors otherwise resistant to PD-1 inhibition
  tumor growth: significant suppression of tumor growth
Mouse melanoma; combination with anti-CTLA-4 antibody relative to either therapy alone
  inhibition of tumor growth: superior
Mouse melanoma; in combination with an anti-PD-1 antibody, model otherwise not responsive to anti-PD-1 antibody
  tumor growth inhibition: > 80%
Mouse melanoma; in combination with dacarbazine, compared to either treatment alone
  anti-tumor efficacy: > 80%
[5]; oral dose
  Tmax: 4 h
[5]; [9]
  bioavailability: 6 to 19%
[5]; po, read-out: mean oral t½
  half-life: 5.5 to 8 h
Melanoma xenograft
  growth of the xenograft: significantly inhibited growth of the xenograft
LXRβ; from EC50 values
  specificity for LXRβ than LXRα: approximately 2.9 fold
LXRβ; read-out: median effective concentration (EC50) for LXRβ
  EC50: 0.118 µM
Tumor growth; 25-40 mg/kg/day PO
  exposures at minimum efficacious doses: 10,000-50,000 ng-h/mL
Tumor growth; administered orally (PO)
  minimum efficacious doses: 25 to 40 mg/kg/day
[6]; animal models of glioblastoma, triple negative breast cancer (TNBC) and lung cancer
  anti-tumor activity: demonstrated
[6]; extent varied with model
  inhibition of primary tumor growth: 48-95%
2C19
  inhibition of 2C19: very weakly inhibited
2C9
  inhibition of 2C9: very weakly inhibited
[7]; [10]
  Decreased white blood cell count (All grades), AE/Cycle %: 67%
  Neutropenia (All grades), AE/Cycle %: 67%
[7]; Regimen 1 (Full): 80 mg twice per day daily + docetaxel 35 mg/m^2, 3 subjects, 3 cycles
  Decreased white blood cell count (All grades), number of AEs: 2
[7]; Regimen 1 (Full): 80 mg twice per day daily + docetaxel 35 mg/m^2 days 1, 8, 15 of 28-day cycle, 3 subjects, 3 cycles
  Neutropenia (All grades), number of AEs: 2
[7]; Regimen 2 (Reduced): 80 mg twice per day 5 days then 2 day rest + docetaxel 28 mg/m^2, 7 subjects, 20 cycles
  Decreased white blood cell count (All grades), number of AEs: 4
[7]; [11]
  Decreased white blood cell count (All grades), AE/Cycle %: 20%
  Neutropenia (All grades), AE/Cycle %: 5%
[7]; Regimen 2 (Reduced): 80 mg twice per day 5 days then 2 day rest + docetaxel 28 mg/m^2 days 1, 8, 15, 7 subjects, 20 cycles
  Neutropenia (All grades), number of AEs: 1
[7]; one subject: docetaxel 35 mg/m^2 day 1 and 80 mg twice per day first seven days, then reduced schedule
  adverse event in one Regimen 2 subject: grade 1 white blood cell decrease
2B6
  IC50: 15 µM
1A1
  inhibition of 1A1: very weakly inhibited
3A4
  inhibition of 3A4: very weakly inhibited
Cancer cells
  suppression of cancer cell invasion: ~45%
OATP1B3
  IC50: 3.7 µM
2E1
  inhibition of 2E1: very weakly inhibited
CYP1A2
  induction of CYP1A2: did not induce
CYP2B6; 1 concentration in ⅓ donors
  CYP2B6 induction: > 2 fold
CYP2B6; cryopreserved hepatocytes
  potential to induce CYP2B6: cannot be ruled out
OCT2
  inhibition at 50 µM: < 50%
LXRα
  EC50: 0.336 µM
CYP2J2
  substrate for CYP2J2: possibly
P-glucoprotein (P-gp)
  inhibition of P-gp: does not inhibit
CYP2C19
  substrate for CYP2C19: a substrate
[8]; oral dose
  Tmax: 4 to 8 h
[8]; [9]
  bioavailability: 18 to 30%
[8]; po, read-out: mean apparent oral t½
  half-life: 5 to 6.7 h
